In ChEMBL document CHEMBL1201862, “PubChem BioAssay data set” (2004):
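All cell lines were grown in 96-well plates and treated with compound for 48 hours. GI50: concentration for 50% inhibition of growth.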 Calls of active or inactive are those of the source. Rule as the data show it: active = GI50 up to about 1.1 µM and inactive = higher.

What was measured:
Test in all cases: DTP human tumour cell line panel, 48 h
OVCAR-3 = tested on: OVCAR-3
HCT-15 = tested on: HCT-15
786-0 = tested on: 786-0
A549 = tested on: A549
EKVX = tested on: EKVX
NCI-H23 = tested on: NCI-H23
HCC 2998 = tested on: HCC 2998
HL-60 = tested on: HL-60
OVCAR-8 = tested on: OVCAR-8
HOP-62 = tested on: HOP-62
SN12C = tested on: SN12C
UO-31 = tested on: UO-31
K562 = tested on: K562
KM12 = tested on: KM12
COLO 205 = tested on: COLO 205
SK-MEL-5 = tested on: SK-MEL-5
NCI-H522 = tested on: NCI-H522
RXF 393 = tested on: RXF 393

## O=c1[nH]c2cc(-c3ccccc3)nc-2nn1-c1c(Cl)cc(Cl)cc1Cl
OVCAR-3
  GI50: 23.2 µM (inactive)
HCT-15
  GI50: 36 µM
786-0
  GI50: 30.8 µM (inactive)
A549
  GI50: 37.6 µM (inactive)
EKVX
  GI50: 24.9 µM (inactive)
NCI-H23
  GI50: 24.9 µM (inactive)
HCC 2998
  GI50: 4.03 µM (inactive)
HL-60
  GI50: 20.5 µM (inactive)
OVCAR-8
  GI50: 37.4 µM (inactive)
HOP-62
  GI50: 25.5 µM (inactive)
SN12C
  GI50: 28.6 µM (inactive)
UO-31
  GI50: 22.3 µM (inactive)
K562
  GI50: 41.1 µM (inactive)
KM12
  GI50: 20.5 µM (inactive)
COLO 205
  GI50: 15.1 µM (inactive)
SK-MEL-5
  GI50: 25.9 µM (inactive)
NCI-H522
  GI50: 28.8 µM (inactive)

## CC1=C(O)C(=O)C2C(=O)C1C(C)C2c1ccc(C)cc1 (centres undefined)
OVCAR-3
  GI50: > 100 µM (inactive)
HCT-15
  GI50: > 100 µM
786-0
  GI50: > 100 µM (inactive)
A549
  GI50: > 100 µM (inactive)
EKVX
  GI50: > 100 µM (inactive)
NCI-H23
  GI50: > 100 µM (inactive)
HCC 2998
  GI50: > 100 µM (inactive)
RXF 393
  GI50: > 100 µM (inactive)
OVCAR-8
  GI50: > 100 µM (inactive)
HOP-62
  GI50: > 100 µM (inactive)
UO-31
  GI50: > 100 µM (inactive)
K562
  GI50: > 100 µM (inactive)
KM12
  GI50: > 100 µM (inactive)
COLO 205
  GI50: > 100 µM (inactive)
SK-MEL-5
  GI50: > 100 µM (inactive)
NCI-H522
  GI50: > 100 µM (inactive)

## O=C(Cc1nc2ccccc2o1)C(=O)Nc1cccc(C(F)(F)F)c1
OVCAR-3
  GI50: > 100 µM (inactive)
HCT-15
  GI50: > 100 µM
786-0
  GI50: > 100 µM (inactive)
A549
  GI50: > 100 µM (inactive)
EKVX
  GI50: > 100 µM (inactive)
NCI-H23
  GI50: > 100 µM (inactive)
HCC 2998
  GI50: > 100 µM (inactive)
HL-60
  GI50: > 100 µM (inactive)
OVCAR-8
  GI50: > 100 µM (inactive)
HOP-62
  GI50: > 100 µM (inactive)
SN12C
  GI50: > 100 µM (inactive)
UO-31
  GI50: > 100 µM (inactive)
K562
  GI50: > 100 µM (inactive)
KM12
  GI50: > 100 µM (inactive)
COLO 205
  GI50: > 100 µM (inactive)
SK-MEL-5
  GI50: > 100 µM (inactive)
NCI-H522
  GI50: > 100 µM (inactive)

## Cc1nc(-n2nc(-c3ccccc3)cc2-c2ccccc2)sc1C(/C=C/c1ccc([N+](=O)[O-])cc1)=N/NC(=O)c1ccncc1
OVCAR-3
  GI50: 12.6 µM (inactive)
HCT-15
  GI50: 14.7 µM
786-0
  GI50: 13.5 µM (inactive)
A549
  GI50: 30.3 µM (inactive)
EKVX
  GI50: 36.8 µM (inactive)
NCI-H23
  GI50: 14.8 µM (inactive)
HCC 2998
  GI50: 5.82 µM (inactive)
HL-60
  GI50: 11 µM (inactive)
RXF 393
  GI50: 22.4 µM (inactive)
OVCAR-8
  GI50: 28.9 µM (inactive)
HOP-62
  GI50: 12.8 µM (inactive)
SN12C
  GI50: 24.2 µM (inactive)
UO-31
  GI50: 11.7 µM (inactive)
K562
  GI50: 13.9 µM (inactive)
KM12
  GI50: 4.06 µM (inactive)
COLO 205
  GI50: 21.6 µM (inactive)
SK-MEL-5
  GI50: 18.1 µM (inactive)

## COc1ccc(/C=c2\sc3nnc(CCC(=O)Nc4cccc(C(F)(F)F)c4)n3c2=O)cc1
OVCAR-3
  GI50: 39.8 µM (inactive)
HCT-15
  GI50: > 100 µM
786-0
  GI50: > 71.8 µM (inactive)
A549
  GI50: > 100 µM (inactive)
EKVX
  GI50: > 100 µM (inactive)
NCI-H23
  GI50: > 100 µM (inactive)
HCC 2998
  GI50: > 100 µM (inactive)
HL-60
  GI50: > 47.9 µM (inactive)
RXF 393
  GI50: 41.5 µM (inactive)
OVCAR-8
  GI50: 83.4 µM (inactive)
HOP-62
  GI50: > 100 µM (inactive)
SN12C
  GI50: > 100 µM (inactive)
UO-31
  GI50: > 100 µM (inactive)
K562
  GI50: > 100 µM (inactive)
KM12
  GI50: > 75.9 µM (inactive)
COLO 205
  GI50: > 100 µM (inactive)
SK-MEL-5
  GI50: > 100 µM (inactive)

## COc1cc2c(cc1OC)C(Cl)C(c1ccc(Cl)c(Cl)c1)=C2Cl (centres undefined)
OVCAR-3
  GI50: 4.18 µM (inactive)
HCT-15
  GI50: 3.33 µM
EKVX
  GI50: 18 µM (inactive)
NCI-H23
  GI50: 44.6 µM (inactive)
HL-60
  GI50: 2.47 µM (inactive)
OVCAR-8
  GI50: 6.62 µM (inactive)
SN12C
  GI50: 9.27 µM (inactive)
UO-31
  GI50: 10.6 µM (inactive)
K562
  GI50: 3.22 µM (inactive)
COLO 205
  GI50: 10.7 µM (inactive)
SK-MEL-5
  GI50: 5.94 µM (inactive)
NCI-H522
  GI50: 66.4 µM (inactive)

## CC(=O)NC(CCCCN(Cc1ccccc1)C(=O)N(C)N=O)C(=O)NCc1ccccc1 (centres undefined)
OVCAR-3
  GI50: > 100 µM (inactive)
HCT-15
  GI50: > 100 µM
786-0
  GI50: > 100 µM (inactive)
A549
  GI50: 95.9 µM (inactive)
EKVX
  GI50: 90.4 µM (inactive)
NCI-H23
  GI50: > 100 µM (inactive)
HCC 2998
  GI50: > 100 µM (inactive)
RXF 393
  GI50: 72.1 µM (inactive)
OVCAR-8
  GI50: > 100 µM (inactive)
HOP-62
  GI50: > 100 µM (inactive)
SN12C
  GI50: > 100 µM (inactive)
UO-31
  GI50: 47.3 µM (inactive)
K562
  GI50: 61 µM (inactive)
KM12
  GI50: > 100 µM (inactive)
COLO 205
  GI50: 88.3 µM (inactive)
SK-MEL-5
  GI50: 47.1 µM (inactive)
NCI-H522
  GI50: 16.8 µM (inactive)

## COCCCNC(=O)C1C(=O)C(=O)N(CCCOC)C1=O (centres undefined)
OVCAR-3
  GI50: > 100 µM (inactive)
HCT-15
  GI50: > 100 µM
786-0
  GI50: > 100 µM (inactive)
A549
  GI50: > 100 µM (inactive)
EKVX
  GI50: > 100 µM (inactive)
NCI-H23
  GI50: > 100 µM (inactive)
HCC 2998
  GI50: > 100 µM (inactive)
HL-60
  GI50: > 100 µM (inactive)
OVCAR-8
  GI50: > 100 µM (inactive)
HOP-62
  GI50: > 100 µM (inactive)
SN12C
  GI50: > 100 µM (inactive)
UO-31
  GI50: > 100 µM (inactive)
K562
  GI50: > 100 µM (inactive)
COLO 205
  GI50: > 100 µM (inactive)
SK-MEL-5
  GI50: > 100 µM (inactive)
NCI-H522
  GI50: > 100 µM (inactive)
